# Measured values taken from ChEMBL document CHEMBL5226321, “Ivermectin: A Promising Therapeutic for Fighting Malaria. Current Status and Perspective” (J Med Chem, 2021).
# Assays:
# [1] = system: Anopheles gambiae; assay: Insecticidal in Anopheles gambiae G3 assessed as lethal concentration fed with compound treated human blood at 150 microg/kg administered once; format: functional; conditions: dose 150 µg/kg
# [2] = system: Culex pipiens; assay: Insecticidal in Culex pipiens larvae measured after 48 hrs; format: functional
# [3] = system: Anopheles stephensi; assay: Insecticidal in Anopheles stephensi larvae measured after 48 hrs; format: functional
# [4] = system: Aedes aegypti; assay: Insecticidal in Aedes aegypti larvae measured after 48 hrs; format: functional
# [5] = system: Anopheles gambiae; assay: Insecticidal in Anopheles gambiae G3 assessed as sublethal dose re-blood fed on human arm; format: functional
# [6] = system: Huh-7; assay: Antimalarial activity against liver stage Plasmodium berghei infected in human Huh-7 cells assessed as inhibition by bioluminescence assay; format: functional, cell-based
# [7] = system: Plasmodium vivax; assay: Antimalarial activity against Plasmodium vivax assessed as inhibition of sporogony in Anopheles sp. mosquito fed with blood containing plasma isolated from compound treated parasite-infected human observed after 7 days; format: functional, organism-based
# [8] = system: Plasmodium falciparum; assay: Antimalarial activity against asexual blood stage chloroquine-resistant Plasmodium falciparum Dd2 assessed as parasite growth inhibition by SYBR Green staining based fluorescence analysis; format: functional, organism-based
# [9] = system: Plasmodium falciparum; assay: Antimalarial activity against asexual blood stage mefloquine-resistant Plasmodium falciparum Dd2 assessed as parasite growth inhibition by SYBR Green staining based fluorescence analysis; format: functional, organism-based
# [10] = system: Plasmodium falciparum; assay: Antimalarial activity against asexual blood stage chloroquine-sensitive Plasmodium falciparum 3d7 assessed as parasite growth inhibition by SYBR Green staining based fluorescence analysis; format: functional, organism-based
# [11] = Antimalarial activity against Plasmodium cynomolgi infected in rhesus macaque hepatocytes assessed as inhibition of liver-stage schizonts by Giemsa staining based microscopic analysis; format: functional, cell-based, Macaca mulatta; conditions: hepatocyte
# [12] = system: Plasmodium falciparum; assay: Antimalarial activity against asexual blood stage Plasmodium falciparum assessed as parasite growth inhibition incubated for 72 hrs by HRP2 - ELISA; format: functional, organism-based
# [13] = system: Plasmodium falciparum; assay: Antimalarial activity against Plasmodium falciparum late stage IV-V gametocytes assessed as parasite growth inhibition incubated for 48 hrs by BacTiterGlo assay; format: functional, organism-based
# [14] = system: Huh-7; assay: Antiplasmodial activity against liver stage Plasmodium berghei infected in human Huh-7 cells assessed as inhibition of parasite infection incubated for 48 hrs by bioluminescence assay; format: functional, cell-based
# [15] = system: Plasmodium falciparum; assay: Antiplasmodial activity against asexual blood stage Plasmodium falciparum 3d7 assessed as parasite growth inhibition incubated for 48 hrs by bioluminescence assay; format: functional, organism-based
molecule,measurement,setting,value
C=C(C)[C@H]1C(=O)c2c3c(cc4c5c(n1c24)C[C@@]1(C)C5CC[C@H]2[C@](C)(/C=C/C=C(\C)C(=O)NC(C)(C)C)[C@@H](O)CC[C@@]21C)C1=CC(C)(C)OC(C)(C)C1[C@@H]3O (some centres not stated),LC50,[1],760 ng/mL
CO[C@H]1C[C@H](O[C@H]2[C@H](C)O[C@@H](O[C@@H]3/C(C)=C/C[C@@H]4C[C@@H](C[C@]5(C=C[C@H](C)[C@@H](C(C)C)O5)O4)OC(=O)[C@@H]4C=C(C)[C@@H](O)[C@H]5OC/C(=C\C=C\[C@@H]3C)[C@]54O)C[C@@H]2OC)O[C@@H](C)[C@@H]1O [ABAMECTIN COMPONENT B1B],LC50,[2],2.42 ppb
same,LC50,[3],2.9 ppb
same,LC50,[4],10.4 ppb
CCN(Cc1ccc(Cl)nc1)/C(=C/[N+](=O)[O-])NC [NITENPYRAM],LC50,[1],111 ng/mL
same,LC25,[5],78.65 ng/mL
COc1cc(NC(C)CCCN)c2ncccc2c1 (configuration not stated) [PRIMAQUINE],IC50,"[6]; Homo sapiens, Huh-7",2400 nM
IVERMECTIN,IC50,[7],5.68 ng/mL
same,IC50,[8],2850 nM
same,IC50,[9],1920 nM
same,IC50,[10],1560 nM
same,IC50,[6]; huh-7,2100 nM
same,IC50,[11],10.4 µM
same,IC50,[12],100 nM
same,IC50,[13],500 nM
same,IC50,[14],2100 nM
same,IC50,[15],1560 nM
